From patent publication US20250034216A1, “STEREOSELECTIVE COVALENT LIGANDS FOR ONCOGENIC AND IMMUNOLOGICAL PROTEINS” (The Scripps Research Institute, priority 2021, published 2025)

Experiments:
RETSAT_C547 = target: T1, RETSAT_C547 (Homo sapiens, UniProt Q6NUM9); experiment: IA-DTB cysteine engagement; type: binding; details: 22Rv1 cells, 20 μM probe, 1 h, relative to DMSO
T1 construct: endogenous in cells; host or cells: 22Rv1
T1 sequence (Q6NUM9 19-610): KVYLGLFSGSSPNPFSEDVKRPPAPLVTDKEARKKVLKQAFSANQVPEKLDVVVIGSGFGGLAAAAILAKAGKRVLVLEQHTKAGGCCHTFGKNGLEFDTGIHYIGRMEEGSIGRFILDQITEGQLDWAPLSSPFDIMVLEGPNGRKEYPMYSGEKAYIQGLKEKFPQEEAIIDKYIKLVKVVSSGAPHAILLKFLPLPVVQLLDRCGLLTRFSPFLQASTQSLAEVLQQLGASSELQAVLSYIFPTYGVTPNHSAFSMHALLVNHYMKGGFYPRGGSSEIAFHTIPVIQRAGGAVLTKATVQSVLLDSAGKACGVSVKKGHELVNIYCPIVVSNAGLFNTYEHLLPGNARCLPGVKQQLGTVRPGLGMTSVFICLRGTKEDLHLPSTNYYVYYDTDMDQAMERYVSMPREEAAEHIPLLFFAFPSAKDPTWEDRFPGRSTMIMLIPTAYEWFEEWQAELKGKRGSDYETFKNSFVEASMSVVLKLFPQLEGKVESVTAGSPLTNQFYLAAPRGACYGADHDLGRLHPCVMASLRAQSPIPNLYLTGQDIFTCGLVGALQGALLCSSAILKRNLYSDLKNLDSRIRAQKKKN
Method in brief: (§1)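 First, cells are exposed to electrophilic probes in situ. Next, lysates are labeled with IA-DTB (1 h, ambient temperature), reduced, alkylated and trypsin-digested. Then, IA-DTB peptides are enriched on streptavidin, TMT-labeled and analyzed, with ratios taken against DMSO channels.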

STRBP_C142 = target: T2, STRBP_C142 (Homo sapiens, UniProt Q96SI9); experiment: IA-DTB cysteine engagement; type: binding; details: 22Rv1 cells, 20 μM probe, 1 h, relative to DMSO
T2 construct: endogenous in cells; host or cells: 22Rv1
T2 sequence (Q96SI9 1-672): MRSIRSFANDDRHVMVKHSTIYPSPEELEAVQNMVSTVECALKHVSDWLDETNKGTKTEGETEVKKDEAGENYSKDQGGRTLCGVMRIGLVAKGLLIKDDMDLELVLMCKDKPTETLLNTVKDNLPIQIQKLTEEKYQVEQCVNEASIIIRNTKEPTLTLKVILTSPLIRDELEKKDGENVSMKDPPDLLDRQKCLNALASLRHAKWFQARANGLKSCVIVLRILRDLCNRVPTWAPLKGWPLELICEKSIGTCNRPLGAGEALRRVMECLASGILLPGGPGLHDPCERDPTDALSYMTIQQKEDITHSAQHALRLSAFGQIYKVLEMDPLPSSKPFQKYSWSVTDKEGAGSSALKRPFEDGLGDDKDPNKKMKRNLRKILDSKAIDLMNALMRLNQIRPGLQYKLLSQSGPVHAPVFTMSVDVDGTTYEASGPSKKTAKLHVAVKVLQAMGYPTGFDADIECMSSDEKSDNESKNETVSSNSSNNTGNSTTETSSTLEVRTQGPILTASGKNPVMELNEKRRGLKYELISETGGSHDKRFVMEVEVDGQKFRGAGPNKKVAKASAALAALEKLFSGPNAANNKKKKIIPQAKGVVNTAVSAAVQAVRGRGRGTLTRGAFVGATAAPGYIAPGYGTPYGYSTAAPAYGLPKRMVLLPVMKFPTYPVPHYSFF
Method in brief: as §1

Row | % engagement RETSAT_C547 (RETSAT_C547) [%] | % engagement STRBP_C142 (STRBP_C142) [%] | SMILES
1 | 71.25 | 7.75 | C=CC(=O)N1C[C@H](c2ccc(Br)cc2)[C@H]1C(=O)Nc1cccc2cccnc12 [MY-3B, (2S,3S)-1-acryloyl-3-(4-bromophenyl)-N-(quinolin-8-yl)azetidine-2-carboxamide]
2 | 66.75 | 8.5 | C=CC(=O)N1C[C@H](c2ccc(Br)cc2)[C@@H]1C(=O)Nc1cccc2cccnc12 [MY-1B, (2R,3S)-1-acryloyl-3-(4-bromophenyl)-N-(quinolin-8-yl)azetidine-2-carboxamide]
3 | 53.5 | 16.25 | C=CC(=O)N1C[C@H](c2ccc(Br)cc2)[C@H]1C(=O)Nc1cccc2cccnc12 [MY-3A, (2S,3S)-1-acryloyl-3-(4-bromophenyl)-N-(quinolin-8-yl)azetidine-2-carboxamide]
4 | 80 | 88.25 | C=CC(=O)N1C[C@@H](c2ccc(Br)cc2)[C@H]1C(=O)Nc1cccc2cccnc12 [MY-1A, (2S,3R)-1-acryloyl-3-(4-bromophenyl)-N-(quinolin-8-yl)azetidine-2-carboxamide]
